Assay results taken from patent US20110178104A1, “Anti-Heparin Compounds” (POLYMEDIX INC., priority 2010, published 2011).
Converted amounts (≈) assume the structure as drawn. “And” between values parts separate entries of the source, which are not always exact repeats. Equal values may be shown once.

How the values were obtained:
tinzaparin = assay: FXa amidolytic assay (Example 10), tinzaparin; conditions: read-out: Tinzap FXa EC50; tinzaparin 0.1 ug/ml; human antithrombin, bovine Factor Xa
NIH/3T3 cells = assay: Cytotoxicity colorimetric assay, NIH/3T3; type: cell-based, mouse; conditions: one hour in serum-free media
Method in brief: (§1)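 HepG2 cells (3×10^4/well, MEM + 10% FBS) and NIH/3T3 cells (2×10^4/well, DMEM + 10% BCS) were exposed to compound for 1 h in serum-free medium. Viability read by tetrazolium-to-formazan bioreduction after return to serum medium; EC50 from a four-parameter logistic fit.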

[1] = Cytotoxicity colorimetric assay, NIH/3T3; type: cell-based, mouse; conditions: mouse, NIH/3T3 cells, one hour in serum-free media
Method in brief: as §1

enoxaparin [2] = assay: In vivo neutralization of enoxaparin in the rat; conditions: compared with protamine
Procedure: Compounds were tested for their ability to neutralize enoxaparin coagulation inhibition in rats. Male Sprague-Dawley rats were used in this study (Charles River Laboratories). They were ten-weeks-old at the start of the study and their weights ranged from 319-362 g. Enoxaparin (2 mg/kg) was administered by IV injection to groups of six rats. After 3 min, saline, protamine or a test compound was administered by IV injection. Blood was collected before dosing with enoxaparin, and at 1, 3, 10, 30 and 60 min after dosing with the standard and test compounds. All treatments were dosed in a volume of 1 mL/kg. Blood was collected via the orbital sinus from three rats per group. At each time point, 1 mL of blood was collected from each animal into a single tube. The blood was analyzed using an AMEX Destiny Plus Coagulation Analyzer for activated partial thromboplastin time (APTT) and anti-Factor Xa (low-molecular weight).

Unfractionated heparin = assay: aPTT clotting assay, UFH 0.4 U/mL in plasma (Example 10); type: biochemical; conditions: unfractionated heparin 0.4 U/mL in plasma; aPTT clotting
Procedure: aPTT clotting Assay: Unfractionated heparin was mixed with plasma at a final concentration of 0.4 U/mL (or concentration which increases aPTT time to between 120 and 300 seconds). […] The ACL Elite Hemostasis analyzer (Beckman Coulter™) was used to add aPTT reagent (HemosIL SynthASil) to supplemented plasma. Clotting was initiated by addition of CaCl2 and time to clot was recorded.

fondaparinux [3] = assay: In vivo neutralization of fondaparinux in the rat; conditions: fondaparinux 0.5 mg/kg IV, test agent 2 and 5 mg/kg IV
Procedure: Compounds were selected to test fondaparinux neutralization in vivo. Rats were pre-treated with fondaparinux administered by IV injection at 0.5 mg/kg. The rats were then treated with a single IV injection of saline, protamine or the PMX compound. Blood was collected via the orbital sinus from three rats per group at the following time points: pre-dose, 1, 3, 10, 30 and 60 min. Plasma samples were prepared for analysis of anti-factor Xa activity using an AMEX Destiny Plus Coagulation Analyzer.

UFH [4] = assay: FXa amidolytic assay (Example 10), UFH; conditions: read-out: Heparin FXa uM EC50; UFH 0.03 units/mL; human antithrombin, bovine Factor Xa
UFH [5] = assay: In vivo neutralization of unfractionated heparin in the rat; conditions: UFH 100 U/kg IV, 1 mg/kg dose IV
Procedure: The male Sprague-Dawley rats used in this study were obtained from Charles River Laboratories, Raleigh. They were nine-weeks-old at the start of the study and their weights ranged from 279-334 g. Rats were pre-treated with UFH administered by IV injection in a tail vein at 100 U/kg in a dose volume of 1 mL/kg. The rats were then treated with a single IV injection of saline, protamine or the appropriate test compound at doses of 0.25, 0.5 and 1.0 mg/kg. All treatments were dosed in a volume of 1 mL/kg. Blood was collected via the orbital sinus from three rats per group at the following time points after treatment: predose, 1, 3, 10, 30 and 60. At each time point, 1 mL of blood was collected from each animal into a single tube. The blood was analyzed using an AMEX Destiny Plus Coagulation Analyzer for activated partial thromboplastintime (APTT) and anti-Factor Xa.

fondaparinux [6] = assay: FXa amidolytic assay (Example 10), fondaparinux
HepG2 cells = assay: Cytotoxicity colorimetric assay, HepG2; type: cell-based, human; conditions: one hour in serum-free media
Method in brief: as §1

[7] = Cytotoxicity colorimetric assay, HepG2; type: cell-based, human; conditions: human, HepG2 cells, one hour in serum-free media
Method in brief: as §1

blood pressure = assay: Hemodynamic responses in the anesthetized rat; type: in vivo
From the text: As a key safety issue for cationic compounds is reduction in blood pressure shortly after administration. To address this hemodynamic issue, a medicinal chemistry strategy with literature precedence of introducing carboxylic acid functionality was applied to the salicylamide series of compounds. […] Surgically prepared animals were purchased from Charles River Laboratories, Raleigh, N.C. Animals were anesthetized on the day of experiment with isoflurane (1.8-4%). Blood pressure and heart rate data were collected on a Grass Polygraph recorder. The test articles, vehicle or protamine dosing preparations were administered once to each rat by a 10 minute intravenous infusion three minutes following a single intravenous injection of heparin (50 U/kg). Each animal received a dose volume of 2.0 mL/kg. Blood pressure was recorded prior to treatment for approximately 1 minute and immediately following heparin, immediately following vehicle, test articles or protamine and at 5, 15, 30, and 60 minutes following dosing. The doses of test agent were either 8 mg/kg or 16 mg/kg. The differences in hemodynamic effect at 16 mg/kg were especially profound (FIG. 5).

[8] = Coagulation properties via ROTEM; conditions: at fully efficacious doses
enoxaparin [9] = assay: Enoxaparin-extended bleeding times, rat tail transection model; type: in vivo
Procedure: Studies have now been done to examine effects on extended bleeding times caused by enoxaparin treatment. Male Sprague Dawley rats (Charles River) were administered 2 mg/kg enoxaparin by IV injection in the tail vein, followed 3 minutes later by test agent (IV, tail vein) at 2 and 5 mg/kg doses. Tails were then rapidly transected and bleeding time onto an absorbant pad was determined. Enoxaparin alone (no antagonist) extends bleeding time from 11 to 24 seconds.

[10] = test system: isolated human erythrocytes; assay: in vitro; type: cell-based
Method in brief: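 Pooled human red cells, washed and diluted from a 0.22% stock suspension in TBS pH 7.4, were shaken with two-fold dilutions (1000 to 0.48 µg/ml) for 1 h at 37 °C. Released hemoglobin in the supernatant was read at OD405. EC50 came from a four-parameter logistic fit, with melittin as positive control.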

- EC50 (tinzaparin): 124 nM and 96 nM
- EC50 (Unfractionated heparin): 1390 nM and 1840 nM
- EC50 (UFH [4]): 0.101 µM
- EC50 (fondaparinux [6]; read-out: Fondap FXa EC50, fondaparinux 0.02 μg/mL, human antithrombin, bovine Factor Xa): 575 nM and 530 nM and 452 nM
SMILES: COc1ccc(NC(=O)[C@@H](CCCNC(=N)N)NC(=O)c2cc(NC(=O)[C@@H](CCCNC(=N)N)NC(=O)c3cc(NC(=O)[C@@H](CCCNC(=N)N)NC(=O)c4cc(NC(=O)[C@H](N)CCCNC(=N)N)ccc4OCC(=O)O)ccc3OC)ccc2OC)cc1C(N)=O [Compound 283]
- Cytotoxicity 3T3 EC50 (NIH/3T3 cells): >1000 µg/mL
- EC50 at 1 h [1]: 1000 µg/mL (≈ 780 µM)
- in vivo efficacy versus LMWH by anti-factor Xa activity (summary) (enoxaparin [2]): superior to protamine
- reduction of Factor Xa (anti-factor Xa) levels after fondaparinux (fondaparinux [3]): lack of effectiveness
- neutralization of UFH activity in aPTT assays (UFH [5]): complete neutralization
- Potent LMWH-antagonists with superior anti-fondaparinux activity (summary) (fondaparinux [6]): superior anti-fondaparinux activity
- Cytotoxicity HepG2 EC50 (HepG2 cells): >1000 µg/mL
- EC50 at 1 h [7]: 1000 µg/mL (≈ 780 µM)
- hemodynamic response profile (blood pressure; anesthetized rat, 8 or 16 mg/kg 10 minute IV infusion after heparin 50 U/kg): superior to protamine
- hemodynamic liabilities (summary) (blood pressure; rat, in vivo): reduced hemodynamic liabilities
- coagulation properties via ROTEM [8]: normal coagulation properties at fully efficacious doses
- in vivo efficacy versus LMWH by bleeding time (summary) (enoxaparin [9]; compared with protamine): superior to protamine
- neutralization of prolonged bleeding times (enoxaparin [9]; rat, enoxaparin 2 mg/kg IV, test agent 2 mg/kg IV): completely neutralized
- hemolysis and cytotoxicity (summary) [10]: non-hemolytic and low cytotoxicity
- EC50 ([10]; Homo sapiens, Erythrocyte, 1 h, human RBC, 1 hour at 37° C., read-out: Hemolysis EC50): > 1000 µg/mL
